Test results reported in publication PMC4321816 (Chemistry & biology, 2011).
Substitutions are numbered along the chain they refer to.

Key:
[1] = molecular target: T1, PhnA (phosphonoacetate hydrolase; PhnA-N-His) (Sinorhizobium meliloti, UniProt Q92UV8, T68A); test: co-crystal structure, […] Å; assay type: binding; details: with 2 mM ZnCl2; active site, phosphonate at M2, carboxylate at M1
T1 sequence (Q92UV8 1-424 T68A): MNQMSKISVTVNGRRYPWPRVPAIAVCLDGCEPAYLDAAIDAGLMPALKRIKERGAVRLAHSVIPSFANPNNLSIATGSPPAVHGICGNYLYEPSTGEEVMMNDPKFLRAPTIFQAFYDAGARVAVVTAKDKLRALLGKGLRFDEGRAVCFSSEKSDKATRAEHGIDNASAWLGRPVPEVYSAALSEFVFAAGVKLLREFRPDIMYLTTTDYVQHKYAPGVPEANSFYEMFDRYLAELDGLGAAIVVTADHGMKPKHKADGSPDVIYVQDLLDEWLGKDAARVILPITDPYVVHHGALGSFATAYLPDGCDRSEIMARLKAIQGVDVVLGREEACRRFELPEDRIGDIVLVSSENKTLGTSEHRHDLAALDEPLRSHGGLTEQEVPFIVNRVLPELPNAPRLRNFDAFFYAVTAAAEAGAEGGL

[2] = molecular target: T2, PhnA (phosphonoacetate hydrolase; PhnA-N-His) (Sinorhizobium meliloti, UniProt Q92UV8); details: formed by turnover of phosphonoacetate; bidentate to metal M1
T2 sequence (Q92UV8 1-424): T1 sequence (Q92UV8 1-424 T68A) with A68T

[3] = molecular target: T2, PhnA (phosphonoacetate hydrolase; PhnA-N-His); test: co-crystal structure, […] Å; assay type: binding; details: covalent; transition state mimic on Thr68, di-zinc active site

O=C(O)CP(=O)(O)O [phosphonoacetate]
co-crystal structure, 2.0 Å [1]: Crystals for the T68A mutant showed robust density for PnA in the active site

CC(=O)O [acetate]
crystal structure, 2.0 Å, crystals soaked with phosphonoacetate [2]: electron density consistent with an acetate ion bound to the M1 metal ion

[O]=[V]([OH])([OH])[OH] [vanadate]
co-crystal structure, 1.8 Å (Table 1) [3]: we have determined the co-crystal structure of a covalent complex with orthovanadate
